{
  "source": "paper PMC10948969",
  "about": "(Nature cancer, 2023)",
  "key": {"WNT reporter (TOP-GFP)": {"tested_on": "WNT reporter (TOP-GFP)", "assay": "TOP-GFP Wnt reporter in MYC-CTNNB1 organoids", "assay_type": "cell-based, mouse", "conditions": "24 h after treatment"}, "[1]": {"tested_on": "MYC-CTNNB1 tumor organoid allografts", "assay": "MYC-CTNNB1 tumor organoid allografts in C57BL/6 mice", "assay_type": "in vivo, mouse", "conditions": "30 mg kg−1 daily oral gavage, treatment from 100 mm3"}, "[2]": {"tested_on": "CTNNB1-mutated HCC (MYC-lucOS; CTNNB1)", "assay": "Hydrodynamic tail-vein", "assay_type": "in vivo, mouse", "conditions": "5 d on and 2 d off"}, "[3]": {"assay": "In vivo dose escalation / tolerability in mice"}, "ERK1": {"molecular_target": "ERK1 (Homo sapiens, UniProt P27361)", "sequence (P27361 whole entry)": "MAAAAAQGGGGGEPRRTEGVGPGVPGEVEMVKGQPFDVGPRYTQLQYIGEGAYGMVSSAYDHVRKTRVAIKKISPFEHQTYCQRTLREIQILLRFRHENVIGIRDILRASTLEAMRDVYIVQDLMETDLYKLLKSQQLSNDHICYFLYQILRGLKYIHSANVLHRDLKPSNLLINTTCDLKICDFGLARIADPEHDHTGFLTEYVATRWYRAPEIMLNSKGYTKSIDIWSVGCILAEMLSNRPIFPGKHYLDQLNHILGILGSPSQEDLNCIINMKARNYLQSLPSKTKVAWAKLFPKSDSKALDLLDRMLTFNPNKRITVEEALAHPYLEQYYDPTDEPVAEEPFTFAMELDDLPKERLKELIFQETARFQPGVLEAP", "assay": "In vitro kinase assay with EZH2 T367 peptide, ERK", "assay_type": "biochemical", "conditions": "inhibitor 1 μM, EZH2 peptide 1 μM"}, "[4]": {"tested_on": "KIT, PDGFRα/β, VEGFR1/2, RET and FLT3", "assay": "Kinome profiling", "assay_type": "binding", "conditions": "in vitro kinome selectivity profile"}, "p38 (MAPK14)": {"molecular_target": "p38 (MAPK14) (Homo sapiens, UniProt Q16539)", "sequence (Q16539 whole entry)": "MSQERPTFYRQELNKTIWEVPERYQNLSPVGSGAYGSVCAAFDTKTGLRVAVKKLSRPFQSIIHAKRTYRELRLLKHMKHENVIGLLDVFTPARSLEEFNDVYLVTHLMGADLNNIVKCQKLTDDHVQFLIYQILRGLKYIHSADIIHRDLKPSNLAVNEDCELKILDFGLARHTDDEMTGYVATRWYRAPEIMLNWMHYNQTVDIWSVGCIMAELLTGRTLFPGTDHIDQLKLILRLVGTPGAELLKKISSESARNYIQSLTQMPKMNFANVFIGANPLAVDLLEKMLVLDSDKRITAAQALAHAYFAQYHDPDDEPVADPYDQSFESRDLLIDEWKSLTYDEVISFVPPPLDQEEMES", "assay": "In vitro kinase assay with EZH2 T367 peptide, p38", "assay_type": "biochemical", "conditions": "inhibitor 1 μM, EZH2 peptide 1 μM"}, "[5]": {"tested_on": "MYC-Tp53 tumor organoid allografts", "assay": "MYC-Tp53 tumor organoid allografts in C57BL/6 mice", "assay_type": "in vivo, mouse", "conditions": "30 mg kg−1 daily oral gavage, treatment from 100 mm3"}, "[6]": {"tested_on": "MYC-CTNNB1 tumor organoids", "assay": "Drug toxicity", "assay_type": "cell-based, mouse"}, "[7]": {"assay": "Single-dose oral pharmacokinetics in BALB/c mice", "assay_type": "in vivo, mouse"}, "HEPG2 cells": {"tested_on": "HEPG2 cells", "assay": "Drug toxicity", "assay_type": "cell-based, human", "conditions": "3 d"}},
  "data": [
    {"smiles": "CCCc1cc(C)[nH]c(=O)c1CNC(=O)c1cc(-c2ccnc(N3CCN(C)CC3)c2)cc2c1cnn2C(C)C", "note": "[GSK343]", "values": [
      {"measurement": "WNT-driven GFP reporter expression", "setting": "WNT reporter (TOP-GFP)", "value": "neither small molecule (MS1943 or GSK343) dampened the expression of the WNT reporter"}
    ]},
    {"smiles": "Cc1cc(C)c(CNC(=O)c2cc(-c3ccc(N4CCN(CCNC(=O)CC56CC7CC(CC(C7)C5)C6)CC4)nc3)cc3c2cnn3C(C)C)c(=O)[nH]1", "note": "[MS1943]", "values": [
      {"measurement": "WNT-driven GFP reporter expression", "setting": "WNT reporter (TOP-GFP)", "value": "neither small molecule (MS1943 or GSK343) dampened the expression of the WNT reporter"}
    ]},
    {"smiles": "CNC(=O)c1cc(Oc2ccc(NC(=O)Nc3ccc(C(F)(F)C(F)(F)F)cc3)c(F)c2)ccn1", "note": "[WNTinib]", "values": [
      {"measurement": "tumor regression", "setting": "[1]", "value": "induced significant tumor regression"},
      {"measurement": "survival of remaining animals after the final dosing", "setting": "[2]; 20 mg kg−1 oral", "value": "> 300", "unit": "days"},
      {"measurement": "fraction of treatment arm that succumbed to death", "setting": "[2]; 20 mg kg−1 oral, started 7 d post-injection", "value": 40, "unit": "%"},
      {"measurement": "phenotype on extended treatment", "setting": "[3]; mice treated for >3 weeks, consistent with on-target KIT inhibition", "value": "fur depigmentation"},
      {"measurement": "signs of sickness or toxicity", "setting": "[3]; three mouse strains, dosed daily for 2 weeks, oral dose escalation", "value": "No mice showed signs of sickness, or evident toxicity in the liver, intestine or kidney"},
      {"measurement": "WNT-driven GFP reporter expression", "setting": "WNT reporter (TOP-GFP)", "value": "the only compound to downregulate WNT-driven GFP expression"},
      {"measurement": "inhibition of EZH2 Thr367 peptide phosphorylation by ERK", "setting": "ERK1", "value": "did not inhibit this phosphorylation in vitro"},
      {"measurement": "inhibition of proposed key targets of sorafenib and regorafenib", "setting": "[4]", "value": "maintained potent inhibition"},
      {"measurement": "inhibition of EZH2 Thr367 peptide phosphorylation by p38", "setting": "p38 (MAPK14)", "value": "did not inhibit this phosphorylation in vitro"},
      {"measurement": "anti-tumor activity", "setting": "[5]", "value": "inactive"},
      {"measurement": "IC50", "setting": "[6]; read-out: IC50 in MYC-CTNNB1 organoids, without cKit knockdown, treated 3 d", "value": "< 1000", "unit": "nM"},
      {"measurement": "combination index (CI) with dabrafenib", "setting": "[6]; titration of BRAF inhibitor dabrafenib, 3 d, CI > 1 = antagonized", "value": "> 1"},
      {"measurement": "combination index (CI) with SCF", "setting": "[6]; titration of KIT ligand SCF, 3 d, CI >1 = antagonized", "value": "> 1"},
      {"measurement": "combination index (CI) with SB202190", "setting": "[6]; titration of p38α/β inhibitor SB202190, 3 d, CI > 1 = antagonized", "value": "> 1"},
      {"measurement": "plasma concentration", "setting": "[7]; 24 h after oral dosing, 20 mg kg−1, BALB/c mice", "value": 7, "unit": "µM"},
      {"measurement": "half-life", "setting": "[7]; BALB/c mice, oral, 20 mg kg−1", "value": 9.38, "unit": "h"},
      {"measurement": "detectable quantities of drug in blood plasma post-dosing", "setting": "[7]; oral, 20 mg kg−1", "value": "up to 72 h"},
      {"measurement": "efficacy with drug-resistant p38α (Thr106Met) or BRAF (Thr529Asn)", "setting": "HEPG2 cells; HEPG2 transduced with gatekeeper mutants vs parental", "value": "largely unchanged"},
      {"measurement": "activity under MEK overexpression", "setting": "HEPG2 cells; constitutively active MEK1 (Ser218Asp, Ser222Asp) in HEPG2", "value": "effectively eliminated WNTinib activity"},
      {"measurement": "shift of IC50 by MKK6 overexpression", "setting": "HEPG2 cells; constitutively active MKK6 (Ser207Glu, Thr211Glu) vs parental HEPG2", "value": "~ 30 fold"},
      {"measurement": "efficacy under activated KIT overexpression", "setting": "HEPG2 cells; doxycycline-inducible activated KIT double mutant in HEPG2", "value": "greatly reduced"}
    ]},
    {"smiles": "COc1cc2nccc(Oc3ccc(NC(=O)NC4CC4)c(Cl)c3)c2cc1C(N)=O", "note": "[lenvatinib]", "values": [
      {"measurement": "anti-tumor activity", "setting": "[5]", "value": "measurable anti-tumor activity"}
    ]},
    {"smiles": "CNC(=O)c1cc(Oc2ccc(NC(=O)Nc3ccc(Cl)c(C(F)(F)F)c3)c(F)c2)ccn1", "note": "[regorafenib]", "values": [
      {"measurement": "anti-tumor activity", "setting": "[5]", "value": "measurable anti-tumor activity"}
    ]},
    {"smiles": "CNC(=O)c1cc(Oc2ccc(NC(=O)Nc3ccc(Cl)c(C(F)(F)F)c3)cc2)ccn1", "note": "[sorafenib, reference compound]", "values": [
      {"measurement": "survival benefit", "setting": "[2]; 30 mg kg−1 oral, started 7 d post-injection", "value": 7.5, "unit": "days"},
      {"measurement": "anti-tumor activity", "setting": "[5]", "value": "measurable anti-tumor activity"},
      {"measurement": "half-life", "setting": "[7]; female, BALB/c, mouse, plasma, po, 20 mg/kg", "value": 8, "unit": "h"}
    ]}
  ]
}
